Measurements from BindingDB's records for doi:10.1021/jm00106a035 (University of Maryland, 1991).

Legend:
[1] = In vitro inhibitory activity towards [3H]cocaine binding to rat striatal tissue
[2] = as above; remark: listed apart in the source

Structure (SMILES) | IC50 [1] | IC50 [2]
COC(=O)C1C2CC[C@H](C[C@@H]1OC(=O)Nc1ccc([N+](=O)[O-])cc1)N2C (stereo not given in full) | 1090 nM | –
COC(=O)C1C2CC[C@H](C[C@@H]1OC(=O)Nc1ccccc1)N2C (stereo not given in full) | 5600 nM | –
COC(=O)C1C2CC[C@H](C[C@@H]1OC(=O)Nc1cccc([N+](=O)[O-])c1)N2C (stereo not given in full) | 37 nM | –
COC(=O)[C@H]1[C@@H](OC(=O)c2ccccc2)C[C@@H]2CC[C@H]1N2C [Cocaine (-)] | – | 65 nM
COC(=O)C1C2CC[C@H](C[C@@H]1OC(=O)Nc1cccc(N)c1)N2C (stereo not given in full) | 2070 nM | –
